The values that follow come from patent US20260035367A1 (Celgene Corporation, priority 2021, published 2026).

Like-named read-outs stand apart in the source and are kept apart here. Bounds are passed on as bounds.

The target of experiment [1] is T1, Recombinant human PKC-theta (His-tagged 362-706) (Homo sapiens, UniProt Q04759).
T1 construct: Recombinant human PKC-theta (His-tagged 362-706); His
Description: PKC-theta inhibition assay (HTRF KinEASE kit). The following applies: ATP 6.5 μM, STK substrate 525 nM. It is filed as biochemical. Put shortly:
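IC50 values were from 4-parameter logistic fits of percent inhibition, based on acceptor/donor HTRF ratios over 10 semi-log compound doses. Kinase reactions, started with substrate plus ATP, ran 30 min at 25 °C in buffer supplemented with 10 mM MgCl2, 1 mM DTT and 0.1% Tween 20; detection lasted 2 h.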
(In TR-FRET formats the signal depends on donor and acceptor labels being close together.)

The target in experiment [2] is T2, Recombinant human PKC-delta (His-tagged 345-676) (Homo sapiens, UniProt Q05655).
T2 construct: PKC-delta (His-tagged 345-676); His
T2 sequence (Q05655 345-676): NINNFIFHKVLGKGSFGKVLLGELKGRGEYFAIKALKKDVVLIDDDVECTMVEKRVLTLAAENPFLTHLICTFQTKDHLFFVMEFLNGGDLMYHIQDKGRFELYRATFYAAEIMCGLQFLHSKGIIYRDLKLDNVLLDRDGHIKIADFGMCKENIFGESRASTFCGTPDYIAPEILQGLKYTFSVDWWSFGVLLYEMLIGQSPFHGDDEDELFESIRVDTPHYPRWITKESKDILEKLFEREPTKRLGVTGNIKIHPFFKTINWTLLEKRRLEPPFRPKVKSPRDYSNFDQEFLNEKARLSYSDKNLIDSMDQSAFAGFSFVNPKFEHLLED
Description: PKC-delta inhibition assay (HTRF KinEASE kit). It is filed as biochemical. Conditions: ratio, PKC-theta vs PKC-delta HTRF; for PKC-theta/PKC-delta selectivity (binned): binned A to G.

Experiment [3] concerns IL-2 secretion by human effector memory T cells (TEM). Description: Effector memory T cells IL-2 release assay (CD3/CD28 stimulation, HTRF IL-2 detection). It is filed as cell-based. The following applies: 24 h; for IC50: Homo sapiens, T-cell. Put shortly:
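Human effector memory T cells from healthy-donor buffy coats were exposed in triplicate to ten semi-log doses of compound in 0.1% DMSO. The cells were stimulated and incubated 24 h at 37 °C. Secreted IL-2 in the supernatant was measured by HTRF.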

Where [4] appears, read: binned A to H, read-out: PKC-theta HTRF pIC50 (binned) (converted).
[5] abbreviates: read-out: PKC-theta HTRF pIC50 (converted).
Where [6] appears, read: binned A to G, read-out: PKC-theta IL2 pIC50 (binned) (converted).
Setting [7] is: read-out: PKC-theta IL2 pIC50 (converted).

T1 sequence (Q04759 362-706): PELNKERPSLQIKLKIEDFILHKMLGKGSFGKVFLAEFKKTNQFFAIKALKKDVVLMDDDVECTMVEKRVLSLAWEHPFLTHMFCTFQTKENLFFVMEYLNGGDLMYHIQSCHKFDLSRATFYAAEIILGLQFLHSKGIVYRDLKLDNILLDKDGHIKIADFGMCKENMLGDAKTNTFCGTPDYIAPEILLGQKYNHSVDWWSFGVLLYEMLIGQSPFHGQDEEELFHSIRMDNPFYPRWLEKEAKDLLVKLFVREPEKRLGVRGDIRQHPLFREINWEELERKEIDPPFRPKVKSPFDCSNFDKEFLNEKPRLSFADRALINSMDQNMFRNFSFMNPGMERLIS

For the molecule `CC1(C)C(=O)Nc2nccc(-c3cc(C(F)(F)F)cc(C4(CO)CCNC4)n3)c21` (stereo not drawn) [Example 70], the IC50 in experiment [1] (setting [4]) is 1 to 3.16 nM; in experiment [1] (setting [5]), 2.51 nM; in experiment [3] (setting [6]) it was 316 to 1000 nM; in experiment [3] (setting [7]), 398 nM. In addition, the PKC-theta/PKC-delta selectivity in experiment [2] worked out at 30. For the same molecule, the “PKC-theta/PKC-delta selectivity (binned)” value in experiment [2] is “B (a ratio of between 30 and 50)”.

In the case of `O=C1Nc2nccc(-c3cc(C(F)(F)F)cc(N4CCNCC4)n3)c2C12CCCC2` [Example 103], the IC50 in experiment [1] (setting [4]) is 10 to 31.6 nM; in experiment [1] (setting [5]) it was 15.8 nM; in experiment [3] (setting [6]) it was 100 to 316 nM; in experiment [3] (setting [7]), 100 nM. Moreover, the PKC-theta/PKC-delta selectivity in experiment [2] worked out at 6. The “PKC-theta/PKC-delta selectivity (binned)” value in experiment [2] was “E (a ratio of between 5 and 10)”.

Turning to `CC[C@H]1CN(c2cc(Cl)cc(-c3ccnc4c3[C@@](C)(OC)C(=O)N4)n2)CCN1` (single isomer, unassigned) [Example 152], the IC50 in experiment [1] (setting [4]) was 3.16 to 10 nM. In experiment [1] (setting [5]), the IC50 was 6.31 nM. Moreover, in experiment [2], the PKC-theta/PKC-delta selectivity is 11; the “PKC-theta/PKC-delta selectivity (binned)” value was “D (a ratio of between 10 and 20)”. Moreover, in experiment [3], the “PKC-theta IL2 pIC50” value came to 7.1. In experiment [3] (binned A to G), the “PKC-theta IL2 pIC50 (binned)” value was “D (a measured pIC50 of between 7.0 and 7.5)”.

Regarding `CC(F)(F)c1cc(-c2ccnc3c2C(C)(C)C(=O)N3)nc(N2CCCNCC2)c1` [Example 203], the IC50 in experiment [1] (setting [4]) is 3.16 to 10 nM; in experiment [1] (setting [5]) it was 6.31 nM; in experiment [3] (setting [6]) it was 31.6 to 100 nM; in experiment [3] (setting [7]) it was 100 nM. The PKC-theta/PKC-delta selectivity in experiment [2] is given as 14. Also, in experiment [2], the “PKC-theta/PKC-delta selectivity (binned)” value is “D (a ratio of between 10 and 20)”.

Consider `CCC1(O)C(=O)Nc2nccc(-c3cc(C(F)(F)F)cc(N4CCN[C@@H](C)C4)n3)c21` (stereo partly drawn) [Example 111], for which the IC50 in experiment [1] (setting [4]) was 3.16 to 10 nM; in experiment [1] (setting [5]), 5.01 nM; in experiment [3] (setting [6]), 100 to 316 nM; in experiment [3] (setting [7]) it was 126 nM. In addition, the PKC-theta/PKC-delta selectivity in experiment [2] is 17. Besides, the “PKC-theta/PKC-delta selectivity (binned)” value in experiment [2] is “D (a ratio of between 10 and 20)”.

For the molecule `C[C@H]1CNCCN1c1cc(C(F)(F)F)cc(-c2ccnc3c2C(C)(C)C(=O)N3)n1` [Example 101], the IC50 was 3.16 to 10 nM in experiment [1] (setting [4]), 6.31 nM in experiment [1] (setting [5]), 31.6 to 100 nM in experiment [3] (setting [6]) and 100 nM in experiment [3] (setting [7]). In addition, the PKC-theta/PKC-delta selectivity in experiment [2] came out at 12. Also, the “PKC-theta/PKC-delta selectivity (binned)” value in experiment [2] is “D (a ratio of between 10 and 20)”.

Turning to `CC[C@@]1(C)C(=O)Nc2nccc(-c3cc(C(F)(F)F)cc(N4CCNC[C@H]4C)n3)c21` (single isomer, unassigned) [Example 198], the IC50 was 3.16 to 10 nM in experiment [1] (setting [4]), 3.98 nM in experiment [1] (setting [5]), 31.6 to 100 nM in experiment [3] (setting [6]) and 63.1 nM in experiment [3] (setting [7]). The PKC-theta/PKC-delta selectivity in experiment [2] came out at 30. In experiment [2], the “PKC-theta/PKC-delta selectivity (binned)” value is “C (a ratio of between 20 and 30)”.

`CC[C@]1(C)C(=O)Nc2nccc(-c3cc(C(C)(F)F)cc(N4CCCNCC4)n3)c21` (single isomer, unassigned) [Example 205]: the IC50 in experiment [1] (setting [4]) is 3.16 to 10 nM; in experiment [1] (setting [5]) it was 3.98 nM; in experiment [3] (setting [6]), 31.6 to 100 nM; in experiment [3] (setting [7]), 79.4 nM. The PKC-theta/PKC-delta selectivity in experiment [2] amounted to 13. For the same molecule, the “PKC-theta/PKC-delta selectivity (binned)” value in experiment [2] is “D (a ratio of between 10 and 20)”.

With `C[C@@H]1CCNCCN1c1cc(C(F)(F)F)cc(-c2ccnc3c2C(C)(C)C(=O)N3)n1` [Example 188], the IC50 in experiment [1] (setting [4]) was 3.16 to 10 nM; in experiment [1] (setting [5]), 6.31 nM; in experiment [3] (setting [6]) it was 31.6 to 100 nM; in experiment [3] (setting [7]), 100 nM. In addition, in experiment [2], the PKC-theta/PKC-delta selectivity is reported as 28. For the same molecule, the “PKC-theta/PKC-delta selectivity (binned)” value in experiment [2] was “C (a ratio of between 20 and 30)”.

Turning to `C[C@@H]1CNC[C@H](C)N1c1cc(C(F)(F)F)cc(-c2ccnc3c2C(C)(C)C(=O)N3)n1` [Example 179], the IC50 in experiment [1] (setting [4]) is 3.16 to 10 nM; in experiment [1] (setting [5]), 6.31 nM; in experiment [3] (setting [6]), 100 to 316 nM; in experiment [3] (setting [7]) it was 200 nM. Besides, in experiment [2], the PKC-theta/PKC-delta selectivity is reported as 20. The “PKC-theta/PKC-delta selectivity (binned)” value in experiment [2] is “D (a ratio of between 10 and 20)”.

As to `C[C@H]1CNCCN1c1cc(C(F)(F)F)cc(-c2ccnc3c2[C@](C)(O)C(=O)N3)n1` (single isomer, unassigned) [Example 93], the IC50 in experiment [1] (setting [4]) is 10 to 31.6 nM; in experiment [1] (setting [5]), 12.6 nM; in experiment [3] (setting [6]), 100 to 316 nM; in experiment [3] (setting [7]) it was 126 nM. In addition, in experiment [2], the PKC-theta/PKC-delta selectivity is 12. Besides, the “PKC-theta/PKC-delta selectivity (binned)” value in experiment [2] is “D (a ratio of between 10 and 20)”.

Take `CC1(C)C(=O)Nc2nccc(-c3cc(C(F)(F)F)cc(N4C[C@H]5CC[C@@H](C4)N5)n3)c21` [Example 135]: the IC50 in experiment [1] (setting [4]) was 10 to 31.6 nM; in experiment [1] (setting [5]), 20 nM; in experiment [3] (setting [6]) it was 100 to 316 nM; in experiment [3] (setting [7]), 316 nM. In addition, the PKC-theta/PKC-delta selectivity in experiment [2] is 13. Besides, in experiment [2], the “PKC-theta/PKC-delta selectivity (binned)” value is “D (a ratio of between 10 and 20)”.

On to `CO[C@]1(C)C(=O)Nc2nccc(-c3cc(Cl)cc(N4CCNC[C@H]4C)n3)c21` (single isomer, unassigned) [Example 172], for which the IC50 was 3.16 to 10 nM in experiment [1] (setting [4]), 10 nM in experiment [1] (setting [5]), 100 to 316 nM in experiment [3] (setting [6]) and 100 nM in experiment [3] (setting [7]). Besides, the PKC-theta/PKC-delta selectivity in experiment [2] came out at 13. In experiment [2], the “PKC-theta/PKC-delta selectivity (binned)” value was “D (a ratio of between 10 and 20)”.

For `CC1(C)C(=O)Nc2nccc(-c3ccnc(N4CCNCC4)c3)c21` [Example 28], the IC50 is > 1000 nM in experiment [1] (setting [4]), 1260 nM in experiment [1] (setting [5]), > 1000 nM in experiment [3] (setting [6]) and 10000 nM in experiment [3] (setting [7]). Also, in experiment [2], the PKC-theta/PKC-delta selectivity came out at 1. The “PKC-theta/PKC-delta selectivity (binned)” value in experiment [2] is on record as “G (a ratio of 0 to 1)”.

With `CC1(O)C(=O)Nc2nccc(-c3cc(N4CCNCC4)cc(C(F)(F)F)c3)c21` (stereo not drawn) [Example 56], the IC50 was 10 to 31.6 nM in experiment [1] (setting [4]), 20 nM in experiment [1] (setting [5]), 316 to 1000 nM in experiment [3] (setting [6]) and 794 nM in experiment [3] (setting [7]). The PKC-theta/PKC-delta selectivity in experiment [2] was found to be 14. For the same molecule, in experiment [2], the “PKC-theta/PKC-delta selectivity (binned)” value is “D (a ratio of between 10 and 20)”.

As for `CC[C@H]1CN(c2cc(C(F)(F)F)cc(-c3ccnc4c3C(C)(C)C(=O)N4)n2)CCN1` [Example 142], the IC50 was 1 to 3.16 nM in experiment [1] (setting [4]), 2 nM in experiment [1] (setting [5]), 31.6 to 100 nM in experiment [3] (setting [6]) and 39.8 nM in experiment [3] (setting [7]). Besides, in experiment [2], the PKC-theta/PKC-delta selectivity stood at 17. Moreover, the “PKC-theta/PKC-delta selectivity (binned)” value in experiment [2] is “D (a ratio of between 10 and 20)”.

On to `CC1(C)C(=O)Nc2nccc(-c3cccc(C4(CO)CCNC4)c3)c21` (stereo not drawn) [Example 43], for which the IC50 was 3.16 to 10 nM in experiment [1] (setting [4]), 7.94 nM in experiment [1] (setting [5]), 316 to 1000 nM in experiment [3] (setting [6]) and 631 nM in experiment [3] (setting [7]). In experiment [2], the PKC-theta/PKC-delta selectivity is recorded as 3. The “PKC-theta/PKC-delta selectivity (binned)” value in experiment [2] was “F (a ratio of between 1 and 5)”.

Take `C[C@H]1CNCCCN1c1cc(C(F)(F)F)cc(-c2ccnc3c2C(C)(C)C(=O)N3)n1` [Example 189]: the IC50 is 3.16 to 10 nM in experiment [1] (setting [4]), 5.01 nM in experiment [1] (setting [5]), 100 to 316 nM in experiment [3] (setting [6]) and 251 nM in experiment [3] (setting [7]). The PKC-theta/PKC-delta selectivity in experiment [2] was 16. Also, the “PKC-theta/PKC-delta selectivity (binned)” value in experiment [2] was “D (a ratio of between 10 and 20)”.
